The test system of one series is red blood cells (RBCs). As to the kind of experiment: Hemolysis assay. Type of series: cell-based, human. As to conditions: 0.1% SDS + distilled water; 4 h room temperature; absorbance 450 nm. Here is the method: The hemolysis test was performed as standard protocol. A 1.5 mL heparin blood sample was obtained from a healthy volunteer in our laboratory. The red blood cells (RBCs) were collected by centrifugation of blood samples at 3000 rpm for 15 min and then were washed three times with PBS. The RBC pellet was resuspended in a 10 mL phosphate-buffer solution (PBS). A 100 µL/well of different concentrations of peptides were added into a 96-well plate (2000 µg/mL, 1000 µg/mL, 500 µg/mL, 250 µg/mL, 125 µg/mL, 62.5 µg/mL, 31.25 µg/mL, 15.62 µg/mL, 7.8 µg/mL). For positive hemolysis control 100 µL/well of 0.1% sodium dodecyl sulfate and distilled water, and for negative hemolysis control 100 µL/well of PBS were added into the appropriated wells. After that, 100 µL RBC suspension was added into all the wells. The plate was incubated at room temperature for 4 h. Then the 100 µL supernatant of each well was carefully transferred to a new 96-well plate. The solution absorbance was investigated by a UV–Vis instrument at 450 nm.

Series [1] in a line: Hydroxyl radical scavenging activity assay. Type of series: biochemical. The conditions noted are these: positive control, 0.5 mM solution; UV-Vis 510 nm. From the text: Hydroxyl radical is one of the strong reactive oxygen species in biological systems that react with the unsaturated fatty acid of phospholipids of the cell membrane and cause cell damage[36]–[38]. To assess the efficacy of peptides in countering hydroxyl radicals, we subjected them to a hydroxyl radical-scavenging activity assay, indicating their scavenging potential across a range of concentrations. The method for preparing the test samples, reagents, and control samples for the hydroxyl scavenging activity assay is as follows: initially, peptide samples at 10 mg/mL concentration were dissolved in ethanol, and subsequently, diluted concentrations of 2, 4, 6, and 8 mg/L were obtained from this solution. The assay reagent includes 6 mM hydrogen peroxide and 6 mM ferrous sulfate in ethanol. A solution of ascorbic acid with 0.5 mM concentration has been prepared as a positive control and a solution without the peptide sample is considered as negative control. […] After 30 min, the UV–Vis absorbance was determined at 510 nm. The determination of hydroxyl radical scavenging activity for the peptide samples was executed as follows:2 Hydroxyl radical scavenging activity%=A0-A1/A0×100, where A0 is the absorbance of the negative control (solution without the peptide sample) and A1 is the absorbance of the peptide samples.

The nature of series [2]: DPPH scavenging activity assay. Type of series: biochemical. As to conditions: compared among six synthesized peptides and with ascorbic acid 0.5 mM. Here is the method:
A straightforward and expeditious approach for quantifying the antioxidant activity of antioxidants involves employing the 2,2-diphenyl-1-picrylhydrazyl (DPPH) assay, a spectrophotometric technique[36]–[38]. Preparation of the test sample, reagent, and control sample in the DPPH assay is as follows: peptide samples with a concentration of 10 mg/mL were prepared in ethanol and then were diluted in 2, 4, 6, and 8 mg/L concentrations. The DPPH solution is prepared with a concentration of 0.02% (w/v) in methanol. A solution of 0.5 mM ascorbic acid has been prepared as a positive control, and methanol is considered as the negative control sample. The peptide sample (250 μL) with DPPH solution (250 μL) in ethanol (1.0 mL) was mixed and stirred in the dark for 30 min at room temperature. The solutions were analyzed using a UV–Vis instrument (Varian, Cary 100) at 517 nm. The calculation of antioxidant activity percentage is reported as the following equation:1 DPPH scavenging activity%=A0-A1/A0×100.
In Eq. (1), A0 is the absorbance of the negative control (methanol) and A1 is the optical absorbance of the peptide samples.
(In general: The DPPH test is a chemical assay of radical scavenging.)

As for `CCCCCCCCCCCCOS(=O)(=O)[O-].[Na+]` [SDS, sodium dodecyl sulfate], in the series with red blood cells (RBCs), the “Hemolysis, OD value of positive control” value was found to be 2.21.
With `O=C1O[C@H]([C@@H](O)CO)C(O)=C1O` [ascorbic acid], the “Hydroxyl radical scavenging activity” value in series [1] is 93.9%.
On to “LHHWY [GP12, ML-generated antioxidant peptide LHHWY, synthesized]”, for which, in series [2], the “DPPH free radical scavenging activity, in words” value is “highest free radical scavenging activity”.
Same read-out and setting: the result for “YWHW [GP9, ML-generated antioxidant peptide YWHW, synthesized]” reads “highest free radical scavenging activity”.
On the same count and under the same terms, the result for “YWYHF [GP10, ML-generated antioxidant peptide YWYHF, synthesized]” reads “highest free radical scavenging activity”.

The values above are taken from publication PMC10948870, “De novo antioxidant peptide design via machine learning and DFT studies” (Scientific Reports, 2024).
